For one molecule, Ki results are on record in ChEMBL document CHEMBL3638960, “4,5-dihydro-oxazol-2yl derivatives” (2014).

This assay deals with Trace amine-associated receptor 1 (Mus musculus, UniProt Q923Y8). Kind of assay: Binding assay: Binding assay was performed at 4 C. in a final volume of 1 ml, and with an incubation time of 30 min. The radioligand [3H]-rac-2-(1,2,3,4-tetrahydro-1-naphthyl)-2-imidazoline was used at a concentration equal to the calculated Kd value of 60 nM to give a bound at around 0.1% of the total added radioligand concentration, and a specific binding which represented approximately 70-80% of the total binding. Non-specific binding was defined as the amount of [3H]-rac-2-(1,2,3,4-tetrahydro-1-naphthyl)-2-imidazoline bound in the presence of the appropriate unlabelled ligand (10 μM). Competing ligands were tested in a wide range of concentrations ([…]).

Structures are written as SMILES.

Chain of Trace amine-associated receptor 1 (Q923Y8 whole entry): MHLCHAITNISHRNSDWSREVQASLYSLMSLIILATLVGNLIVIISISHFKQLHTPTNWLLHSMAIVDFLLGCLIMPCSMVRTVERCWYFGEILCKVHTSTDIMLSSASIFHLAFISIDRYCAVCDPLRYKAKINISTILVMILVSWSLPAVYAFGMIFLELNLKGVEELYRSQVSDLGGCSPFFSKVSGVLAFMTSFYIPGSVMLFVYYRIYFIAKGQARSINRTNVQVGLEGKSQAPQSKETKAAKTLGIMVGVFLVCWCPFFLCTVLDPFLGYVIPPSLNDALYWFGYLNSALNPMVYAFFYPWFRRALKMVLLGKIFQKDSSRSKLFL

For orientation: Ki means a dissociation constant, usually derived from enzyme kinetics or from competition with a known ligand. For the molecule `NC1=N[C@@H](CCC2(c3ccccc3)CC2)CO1`, the Ki was 0.5 nM.
